The text below walks through data of US9606107B2, “Crk—a novel target for cancer therapy” (priority 2011, dated 2017).

Assay type in all cases: cell-based
One series has as its system B16 melanoma cells. Kind of series: Cytotoxicity in B16 melanoma cells by PI staining, immunofluorescent time lapse microscopy. Particulars: infection with ExoT-expressing P. aeruginosa, MOI 10, or transfection with ExoT-EGFP. How it is done: Specifically, FIGS. 8A-8C are photographs of B16 cells infected with Pseudomonas aeruginosa strains expressing ExoT or defective in ExoT (Mock) at a multiplicity of infection (MOI) 10 or treated with 50 μM cisplatinum. Cytotoxicity was determined by measuring propidium iodide (PI) staining using immunofluorescent time lapse microscopy. FIG. 8D graphically illustrates the level of cell death, for the samples of FIGS. 8A-8C as indicated by PI staining intensity in pixels as measured from each frame using NIH Image J software.
B16 cells were infected with Pseudomonas aeruginosa strains expressing ExoT or defective in ExoT (Mock), at multiplicity of infection (MOI) 10 or treated with 50 μM cisplatinum (FIGS. 8A-8C). Cytotoxicity was determined by measuring propidium iodide (PI) staining (red) using immunofluorescent time lapse microscopy. Still images are shown. The level of cell death, indicated by PI staining intensity (pixels), was measured from each frame using NIH Image J software (FIG. 8D). B16 melanoma cells were transiently transfected with pIRES expression vectors, harboring ExoT-EGFP or EGFP alone. Cytotoxicity was determined by PI staining using IF microscopy.

The test system of series [1] is HeLa cells. Kind of series: ACSC formation, release and signalling in transfected apoptotic HeLa cells (IF time-lapse microscopy). The text has this: Specifically, HeLa cells were transiently transfected with CrkI-GFP expression vector. CrkI forms complexes (indicated […] which go through a cytoplasmic bridge from a dying cell (indicated by red arrow) and induce healthy neighbor recipient cells (indicated by yellow arrow) to divide. Six frames (FIGS. 3A-3F) from IF timelapse microscopy are shown.
FIG. 4 graphically illustrates that ACSC formation is an active process. Specifically, the incidence of apoptotic compensatory signaling complex (ACSC) release from CrkI, CrkI-R38K (SH2 DN), and CrkI-VV170K (SH3 DN) transfected HeLa cells is shown in bar chart form.
FIG. 5 graphically illustrates that ACSC formation is regulated differently by SH2 and SH3 domains. Specifically, the number of ACSC complexes per apoptotic CrkI, CrkI (SH2 DN), and CrkI (SH3 DN) transfected HeLa cells was determined and the results are presented in bar chart form.
FIGS. 6A-6C photographically illustrate that the ADPRT domain of ExoT appears to inhibit ACSC. […]
(§1) ExoT inhibits ASCS formation. […] We assessed the proliferation capacity index associated with ExoT- or CrkI apoptotic cells. […]

Series [2] concerns HeLa cells. Kind of series: Proliferation capacity index of transfected apoptotic cells (mitotic cells in neighbouring cells). Particulars: compared to CrkI-transfected apoptotic cells; within six hours after cell rounding. The text has this: FIG. 7 graphically illustrates that ExoT blocks ACSC-induced proliferation in surrounding cells. Specifically, the proliferation capacity index of the CrkI-EGFP or ExoTEGFP transfected apoptotic cells was defined based on the capacity to induce proliferation in the neighboring cells within six hours after cell rounding.
ExoT inhibits ASCS formation. […] If ExoT inhibited ACSC assembly and signaling, it was reasoned that there should be a reduction in the number of mitotic cells surrounding the ExoT-induced apoptotic cells. We assessed the proliferation capacity index associated with ExoT- or CrkI apoptotic cells. […] Without being bound to any particular theory, it is believed that CrkI adaptor protein functions as a scaffold for the ACSC assembly and that PA utilizes ExoT to block this process while inducing apoptosis in its target host.

The test system of a further series is HeLa-S3 cells. Nature of the series: Cytotoxicity of ExoT-expressing PA103 infection in anoikis-resistant HeLa-S3 cells (PI uptake, video microscopy). Particulars: ExoT-expressing PA103 strain, MOI about 10. Here is the method: Anoikis-sensitive (HeLa) or Anoikis-resistant (HeLa S3) cells were infected with the ExoT-expressing PA strain (PA103 AU) at an MOI of ca. 10. Host cell death was assessed by uptake of propidium iodide (PI) by simultaneous time lapse phase and fluorescent video microscopy. Video images were captured every 15 min. Representative frames are shown.
To test this hypothesis, 1×10^5 HeLa and HeLa-S3 cells were infected with ExoT-expressing PA103 strain at MOI of about 10 and assessed apoptosis by immunofluorescent (IF) video microscopy in the presence of propidium iodide (PI) as described.

Series [3] deals with HeLa cells. Nature of the series: Apoptosis / cell death of transiently transfected HeLa cells by IF time-lapse video microscopy with propidium iodide.
From the text: FIGS. 2A-2D illustrate photographically, graphically and in a chart that transient transfection of DN Crk induces cell death in HeLa cells. Specifically, HeLa cells were transiently transfected with wild type CrkI (pCrkI), SH2 DN (pCrkI/R38K), or SH3 DN (pCrkI/W170K) fused to C FP in the absence (FIG. 2A) or presence (FIG. 2B) of carbobenzoxy-valyl-alanyl-aspartyl-[O-methyl], or ZVAD. The tabulated results shown in FIG. 2D, were collected from multiple videos. The time to death was defined as the time of expression of transfected gene (appearance of green) to the time of PI uptake (appearance of yellow) and expressed as the mean+SEM.
We postulated that if modification of Crk by ExoT is responsible for inducing anoikis, DN mutations in CrkI domains might also result in apoptosis, phenocopying the ExoT's cytotoxicity. To investigate this hypothesis, HeLa cells were transfected with mammalian expression vectors harboring CrkI or its SH2 (CrkI/R38K) or SH3 (CrkI/W170K) DN mutant forms, fused at their C-termini to GFP, and assessed apoptosis by IF video microscopy in the presence or absence of Z-VAD, a pancaspase inhibitor that blocks known apoptotic cell deaths. […]
as §1

In series [4] the test system is 4T1 metastatic breast tumor cells. Kind of series: Cytotoxicity in 4T1 metastatic breast tumor cells by PI staining, immunofluorescent timelapse microscopy. Here is the method:
Specifically, in FIGS. 9A-9C, 4T1 cells were infected with PA103 strains expressing ExoT or defective in ExoT expression (Mock), or treated with 50 μM cisplatinum (Cisplatin).
Specifically, 4T1 cells were infected with PA103 strains expressing ExoT (ExoT) […] or defective in ExoT expression (Mock) (FIG. 9A), or treated with 50 μM cisplatinum (Cisplatin) (FIG. 9C). Cytotoxicity was determined by propidium iodide (PI) staining using immunofluorescent timelapse microscopy (FIG. 9D).

Peptide text beside a SMILES is read from it. * marks the point of attachment. Cbz = O=C(OCc1ccccc1)*; CH2F = FC*

On to ExoT, for which, in the series on B16 melanoma cells, the “cytotoxicity in B16 melanoma cells” value is given as “potent cytotoxicity”. Moreover, the “ACSC-like globular complexes in transfected apoptotic HeLa cells” value in the series on HeLa cells [1] (transfection with ExoT fusion vectors) is “never observed”. Further, the “percentage of mitotic cells surrounding transfected apoptotic HeLa cells” value in the series on HeLa cells [2] was “substantial reduction”. In addition, the “ExoT-induced cytotoxicity in HeLa-S3 cells” value with HeLa-S3 cells is “resistant”. The “apoptosis (cell death) in transfected HeLa cells” value with HeLa cells [3] (transient transfection with expression vector, IF video microscopy, PI) was 100%. In addition, the “cell death in 4T1 cells” value in series [4] (infection with PA103 strain expressing ExoT) is “potent inducer of cell death”.
Turning to `COC(=O)C[C@H](NC(=O)[C@H](C)NC(=O)[C@@H](NC(=O)OCc1ccccc1)C(C)C)C(=O)CF` [Z-VAD, carbobenzoxy-valyl-alanyl-aspartyl-[O-methyl], reference compound] (Cbz-Val-Ala-Asp(OMe)-CH2F), the ACSC formation entry with HeLa cells [1] (treatment with Z-VAD, all conditions) is listed as “completely blocked”. Besides, the “apoptotic PCD” value in the series with HeLa cells [3] (treatment with Z-VAD) was “blocked”.
As to `N.N.[Cl][Pt][Cl]` [cisplatin, cisplatinum, reference compound], the “cell death in 4T1 cells” value in series [4] (50 μM cisplatinum) was “kill 4T1 cells”.
